Measurements reported in patent US20080293081A1, “Fluorescence Polarization Assays for Acetyltransferase/Deacetylase Activity” (Sirtris Pharmaceuticals, Inc., priority 2005, published 2008).
Where two headings read alike, the source gives them in different places. Each block holds one compound with its values, some of them ahead of it. No end group written: not given here.

Tests used:
[1] = molecular target: T1, SIRT1 (Homo sapiens, UniProt Q96EB6); experiment: Fluorescence polarization assay, SIRT1 deacetylation of p53-based peptide substrate; assay type: biochemical; conditions: for EC50: activation of SIRT1, compounds 1-18 with peptide 1 (MR121), compounds 19-56 with peptide 2 (5TMR), read-out: ED50 (the source's name); for IC50: inhibition of SIRT1
T1 sequence (Q96EB6 1-747): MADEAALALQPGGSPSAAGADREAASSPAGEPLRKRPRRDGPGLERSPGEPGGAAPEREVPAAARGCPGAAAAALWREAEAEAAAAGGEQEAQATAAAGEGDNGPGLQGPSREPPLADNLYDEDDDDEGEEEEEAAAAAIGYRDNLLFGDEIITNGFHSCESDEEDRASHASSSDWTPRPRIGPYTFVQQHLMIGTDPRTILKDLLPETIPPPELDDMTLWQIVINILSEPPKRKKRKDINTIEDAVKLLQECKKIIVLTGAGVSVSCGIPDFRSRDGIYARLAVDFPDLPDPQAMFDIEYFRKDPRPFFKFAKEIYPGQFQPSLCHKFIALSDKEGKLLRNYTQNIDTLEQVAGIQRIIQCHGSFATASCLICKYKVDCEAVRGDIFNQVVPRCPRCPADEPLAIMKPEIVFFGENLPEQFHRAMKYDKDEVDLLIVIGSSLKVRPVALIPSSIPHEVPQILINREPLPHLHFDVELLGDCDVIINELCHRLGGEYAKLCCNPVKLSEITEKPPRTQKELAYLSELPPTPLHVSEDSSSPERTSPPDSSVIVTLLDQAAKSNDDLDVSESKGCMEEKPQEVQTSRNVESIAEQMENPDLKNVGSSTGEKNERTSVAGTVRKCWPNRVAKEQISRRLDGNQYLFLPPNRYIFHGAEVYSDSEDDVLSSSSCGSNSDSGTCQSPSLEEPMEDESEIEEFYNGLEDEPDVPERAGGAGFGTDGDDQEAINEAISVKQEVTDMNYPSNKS

[2] = molecular target: T1, SIRT1; conditions: Sirt1, nicotinamide release, cited from earlier work
[3] = molecular target: T2, SIRT3 (Homo sapiens, UniProt Q9NTG7); experiment: Fluorescence polarization assay, SIRT3 deacetylation of Histone H4-based peptide substrate; assay type: biochemical
T2 construct: amino acid residues 102-399 of human SIRT3 with an N-terminal His-tag; His-tag (N); made in house; host or cells: E. coli
T2 sequence (Q9NTG7 102-399): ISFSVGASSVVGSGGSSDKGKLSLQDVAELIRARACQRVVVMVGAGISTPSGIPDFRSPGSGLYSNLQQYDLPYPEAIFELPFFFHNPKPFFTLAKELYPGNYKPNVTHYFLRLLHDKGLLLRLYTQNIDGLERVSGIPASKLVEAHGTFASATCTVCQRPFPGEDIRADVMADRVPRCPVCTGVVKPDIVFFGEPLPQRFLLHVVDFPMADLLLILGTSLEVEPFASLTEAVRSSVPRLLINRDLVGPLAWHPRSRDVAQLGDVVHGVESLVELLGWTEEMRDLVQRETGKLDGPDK
Description: A fluorescence polarization assay was used to identify modulators of SIRT3 activity. The same assay may be used to identify modulators of any sirtuin protein. The assay utilizes a peptide substrate based on a fragment of Histone H4, a known sirtuin deacetylation target. […] The peptide is labeled with the fluorophore MR121 (excitation 635 nm/emission 680 nm) at the C-terminus and biotin at the N-terminus.
The peptide substrate is exposed to a sirtuin protein in the presence of NAD^+ to allow deacetylation of the substrate and render it sensitive to cleavage by trypsin. Trypsin is then added and the reaction is carried to completion (i.e., the deacetylated substrate is cleaved) releasing the MR121 fragment. Streptavidin is then added to the reaction where it can bind both the uncleaved substrate (i.e., any remaining acetylated substrate) and the non-fluorescent portion of the cleaved peptide substrate (i.e., the biotin containing fragment). The fluorescence polarization signal observed for the full length peptide substrate bound to streptavidin is higher than the fluorescence polarization signal observed for the released MR121 C-terminal fragment. Therefore, the fluorescence polarization obtained is inversely proportional to the level of deacetylation (e.g., the signal is inversely proportional to the activity of the sirtuin protein). Results are read on a microplate fluorescence polarization reader (Molecular Devices Spectramax MD) with appropriate excitation and emission filters.
The fluorescence polarization assays may be conducted as follows: 0.5 μM peptide substrate and 50 μM βNAD^+ is incubated with 2 nM of SIRT3 for 60 minutes at 37° C. in a reaction buffer (25 mM Tris-acetate pH8, 137 mM Na—Ac, 2.7 mM K—Ac, 1 mM Mg—Ac, 0.1% Pluronic F127, 10 mM CaCl2, 1 mM TCEP, 0.025% BSA). Test compounds are solubilized in DMSO and are added to the reaction at 11 concentrations ranging from 0.7 μM to 100 μM. The SIRT3 protein used in the assays corresponded to amino acid residues 102-399 of human SIRT3 with an N-terminal His-tag. The protein was overexpressed in E. coli and purified on a nickel chelate column using standard techniques. After the 60 minute incubation with SIRT3, nicotinamide is added to the reaction to a final concentration of 3 mM to stop the deacetylation reaction and 0.5 μg/mL of trypsin is added to cleave the deacetylated substrate. The reaction is incubated for 30 minutes at 37° C. in the presence of 1 mM streptavidin. Fluorescent polarization is determined at excitation (650 nm) and emissions (680 nm) wavelengths. The level of activity of the sirtuin protein in the presence of the various concentrations of test compound are then determined and may be compared to the level of activity of the sirtuin protein in the absence of the test compound, and/or the level of activity of the sirtuin proteins in the negative control (e.g., level of inhibition) and positive control (e.g., level of activation) described below.
A control for activation of sirtuin activity is conducted using 0.5 μg/mL of sirtuin protein to reach baseline deacetylation of the substrate (e.g., to determine normalized sirtuin activity).

[4] = molecular target: T3, Sirt2 (Homo sapiens, UniProt Q8IXJ6); conditions: Sirt2, Biomol Fluor de Lys product literature, cited from earlier work
T3 sequence (Q8IXJ6 1-389): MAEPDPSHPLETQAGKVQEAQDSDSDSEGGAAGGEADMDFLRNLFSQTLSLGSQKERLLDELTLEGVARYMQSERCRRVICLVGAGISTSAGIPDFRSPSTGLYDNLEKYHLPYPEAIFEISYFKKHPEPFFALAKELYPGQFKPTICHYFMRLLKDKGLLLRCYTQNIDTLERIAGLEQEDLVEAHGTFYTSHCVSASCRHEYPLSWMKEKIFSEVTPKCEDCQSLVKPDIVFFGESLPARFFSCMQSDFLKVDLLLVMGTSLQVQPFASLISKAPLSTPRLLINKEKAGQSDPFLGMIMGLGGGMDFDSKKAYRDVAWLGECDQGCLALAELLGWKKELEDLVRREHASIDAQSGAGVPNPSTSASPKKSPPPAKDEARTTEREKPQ

[5] = molecular target: T4, Sirt3 (Homo sapiens, UniProt Q9NTG7); conditions: Sirt3, Biomol Fluor de Lys product literature, cited from earlier work
T4 sequence (Q9NTG7 1-399): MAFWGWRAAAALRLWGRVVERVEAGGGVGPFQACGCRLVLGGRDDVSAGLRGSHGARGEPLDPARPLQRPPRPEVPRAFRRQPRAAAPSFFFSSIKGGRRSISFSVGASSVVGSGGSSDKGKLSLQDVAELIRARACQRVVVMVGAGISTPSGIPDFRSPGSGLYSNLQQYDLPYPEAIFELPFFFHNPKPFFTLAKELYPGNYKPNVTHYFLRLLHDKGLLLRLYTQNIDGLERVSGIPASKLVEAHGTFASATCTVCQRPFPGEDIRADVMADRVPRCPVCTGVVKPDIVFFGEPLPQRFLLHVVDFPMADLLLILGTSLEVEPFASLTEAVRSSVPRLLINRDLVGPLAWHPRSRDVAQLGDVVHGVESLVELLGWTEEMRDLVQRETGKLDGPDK

[6] = molecular target: T1, SIRT1; conditions: Sirt1, Biomol Fluor de Lys product literature, cited from earlier work
[7] = Km of NAD with the named peptide substrate, Kaeberlein et al., read-out: NAD Km
[8] = Kaeberlein et al., read-out: Peptide Km
[9] = read-out: ED50 (the source's name)
[10] = Km of NAD with the named peptide substrate, read-out: NAD Km

EC50 [1]: 51 to 100 µM
Compound: O=C(NNc1c2ccccc2nc2ccccc12)c1ccccn1 [Compound 2]

Compound: p53 (aa 368-386) *FL: p53 (aa 368-386) peptide substrate with fluorescent label, Kaeberlein et al. (HLKSKKGQSTSRHKKLMFK; also: fluorescent label; UniProt P04637 368-386, looked up, fragment)
Km [2, 7]: 192 µM
Km [2, 8]: 87.6 µM

Compound: p53 19 mer (aa 368-386) no FL: p53 19 mer (aa 368-386) peptide substrate without fluorescent label, McDonagh et al. (HLKSKKGQSTSRHKKLMFK; UniProt P04637 368-386, looked up, fragment)
Km ([2]; Km of NAD with the named peptide substrate, McDonagh et al., read-out: NAD Km): 133 µM
Km ([2]; McDonagh et al., read-out: Peptide Km): 10.3 µM

IC50 [1]: > 150 µM
Compound: COc1ccccc1NC(=O)Nc1c2c(nc3ccccc13)CCCC2 [Compound 77]

EC50 [1]: 101 to 150 µM
Compound: FC(F)(F)c1ccnc(NNc2c3ccccc3nc3ccccc23)n1 [Compound 33]

EC50 [3, 9]: 51 to 100 µM
Compound: O=C(O)c1c(O)c(-c2ccccc2)nc2ccccc12 [Compound 80]

EC50 [3, 9]: 51 to 100 µM
Compound: O=C(NCc1ccncc1)c1cc(-c2ccsc2)nc2ccccc12 [Compound 1]

IC50 [1]: 101 to 150 µM
Compound: COc1cc(NC(=O)Nc2c3c(nc4ccccc24)CCCC3)cc(OC)c1OC [Compound 78]

EC50 [1]: 101 to 150 µM
Compound: O=C(NCCN1CCOCC1)c1cc(-c2cccs2)nc2ccc(F)cc12 [Compound 7]

IC50 [1]: > 150 µM
Compound: Cc1nc(-c2cccc(NC(=O)c3c4ccccc4nc4ccccc34)c2)cs1 [Compound 76]

EC50 [3, 9]: 51 to 100 µM
Compound: O=C(NNc1c2ccccc2nc2ccccc12)c1cccnc1 [Compound 11]

EC50 [1]: 51 to 100 µM
Compound: Cc1ccc2nc(-c3ccccc3)cc(C(=O)NCCN3CCOCC3)c2c1 [Compound 12]

Compound: p53 (aa 368-386) no FL: p53 (aa 368-386) peptide substrate without fluorescent label, Kaeberlein et al. (HLKSKKGQSTSRHKKLMFK; UniProt P04637 368-386, looked up, fragment)
Km [2, 7]: 132 µM
Km [2, 8]: 10.3 µM

IC50 [1]: > 150 µM
Compound: O=C(Nc1ccccc1)c1c2c(nc3ccccc13)-c1ccccc1CC2 [Compound 79]

IC50 [1]: < 50 µM
Compound: O=C(NNc1c2c(nc3ccccc13)CCCC2)c1ccccn1 [Compound 73]

IC50 [1]: > 150 µM
Compound: Cc1ccc2nc(-c3ccco3)cc(C(=O)NCCCCN3CCOCC3)c2c1 [Compound 72]

IC50 [3]: 101 to 150 µM
Compound: CC(=O)Nc1ccc(Nc2cc(C)nc3c(C)cccc23)cc1 [Compound 81]

IC50 [1]: > 150 µM
Compound: Cc1cc(C)nc(Nc2c3ccccc3nc3ccccc23)c1 [Compound 74]

EC50 [1]: 101 to 150 µM
Compound: O=C(NCCN1CCOCC1)c1cc(-c2cccs2)nc2ccccc12 [Compound 5]

IC50 [1]: < 50 µM
Compound: COc1cc(C(=O)NNC(=O)c2c3ccccc3nc3ccccc23)cc(OC)c1OC [Compound 75]

EC50 ([3]; activation of SIRT3, read-out: ED50 for activation of SIRT3): > 300 µM
Compound: Oc1ccc(C=Cc2cc(O)cc(O)c2)cc1 [resveratrol, reference compound]

Compound: p53 (aa 317-320) *FL: p53 (aa 317-320) peptide substrate with fluorescent label, Biomol Fluor de Lys SIRT2 and SIRT3 kits (QPKK; also: fluorescent label; UniProt P04637 317-320, looked up, fragment)
Km [4, 10]: 547 µM
Km ([4]; read-out: Peptide Km): 186 µM
Km [5, 10]: 2030 µM
Km ([5]; read-out: Peptide Km): 32 µM

Compound: p53 (aa 379-382) *FL: p53 (aa 379-382) peptide substrate with fluorescent label, Biomol Fluor de Lys SIRT1 kit (RHKK; also: fluorescent label; UniProt P04637 379-382, looked up, fragment)
Km [6, 10]: 558 µM
Km ([6]; read-out: Peptide Km): 64 µM
